Data from patent US7052871B2, “Methods of improving transformation efficiency of plants with auxin responsive promoter sequences” (Pioneer Hi-Bred International, Inc., priority 2000, dated 2006).

Assays:
[1] = system: ZmAxig1 mRNA in BMS (Black Mexican Sweet) maize cells; assay: Northern blot of mRNA from BMS cells cultured on auxin-containing medium, probed with SEQ ID No. 12; format: cell-based, Zea mays; conditions: BMS cultured cells (FIG. 4)
[2] = system: ZmAxig1 mRNA; assay: Northern blot of mRNA from treated plants probed with SEQ ID No. 12 (CJLP181); format: in vivo, Zea mays; conditions: for hybridization of SEQ ID No. 12 probe with mRNA from anther or entire aerial portion of treated plants: anther or entire aerial portion of treated plants (FIG. 4)
[3] = system: male fertility of pZmAxig1:Ms45 plants; assay: Fertility restoration in ms45 male sterile maize plants transformed with V2 (pZmAxig1:Ms45); format: in vivo, Zea mays
Source text: A second DNA plasmid was constructed by combining the ZmAxig1 promoter (1306 bases 5′ of start codon; SEQ ID NO: 16) with the Ms45 coding sequence and 35S:PAT in a T-DNA vector. This plasmid was cointegrated with Japan Tobacco plasmid pSB1 to create a second suitable vector, V2.
Maize GS3Ms45EX4 embryos, segregating for homozygous ms45 (male sterile) and Ms45/ms45 (male fertile) genotypes, were transformed with the first and second vectors using Agrobacterium.
Transformed cell lines homozygous for the ms45 male sterile genotype were screened by quantitative PCR screening and advanced for regeneration into plants. Positive lines were transferred to 289B medium, an MS-based medium containing bialaphos and carbenicillin, with lower sucrose and hormone levels, to initiate plant regeneration. Following somatic embryo maturation (2–3 weeks), well-developed somatic embryos were transferred to medium for germination and transferred to the lighted culture room. Approximately 7 days later, developing plantlets were transferred to medium in tubes for 7 days until plantlets were well established. Plants were then transferred to inserts in flats (equivalent to 2.5″ pot) containing potting soil and grown for one week in a growth chamber, subsequently grown an additional 1–2 weeks in the greenhouse, then transferred to classic 600 pots (1.6 gallon) and grown to maturity.
From each of 20 independent callus lines transformed with V2, six regenerated plants were grown in the greenhouse. […] The plants were scored for fertility after tassels emerged.

[4] = system: ZmAxig1 expression in anthers
Description: Progeny of transgenic maize plants, hemizygous for the maize anther-preferred promoter 5126 (U.S. Pat. Nos. 5,689,049 and 5,689,051) driving DAM methylase linked with 35S:PAT (p5126:DAM/35S:PAT), were grown in the greenhouse. Expression of p5126:DAM is known to ablate the tapetum prior to the quartet stage of microspore development, which results in male sterile plants.
Plants segregating for male fertile/glufosinate-ammonium susceptible phenotype (wild-type) or for male sterile/glufosinate-ammonium resistant phenotype (p5126:DAM/35S:PAT), were treated with a dicamba soil drench as described above, or were not treated. Quartet/early-uninucleate stage anthers were harvested from these plants and mRNA was isolated with the QuickPrep® Micro mRNA purification kit (Amersham Pharmacia, Piscataway, N.J.) according to the manufacturer's instructions.
(§1) Quartet/early-uninucleate stage anthers from dicamba-treated or non-treated plants were harvested and embedded for in situ hybridization or frozen for mRNA isolation as described above.

[5] = system: ZmAxig1 transcripts in the tapetum; conditions: treated plants (FIG. 7)
Source text: as §1

[6] = system: cDNA fragments (w0h051.7, ZmAxig1); conditions: anthers; two daily soil drenches of 12 μl dicamba formulation in 450 ml water
Source text: Anthers containing microsporocytes at meiosis […] through early uninucleate stages of development were harvested on the third day and frozen. Anthers containing microsporocytes at prophase through early uninucleate stages of development were harvested from non-treated plants. Frozen tissues were ground and total RNA extracted with Tripure™ isolation reagent (Boehringer Mannheim, Indianapolis, Ind.) according to the manufacturer's instructions.
RNA isolated from anthers of three dicamba-treated plants and three non-treated plants was sent to laboratories of CuraGen Corporation (New Haven, Conn.) for quantitative expression profiling. […] (FIG. 3)

## O=C(O)COc1ccc(Cl)cc1Cl [2,4-D, 2,4-dichlorophenoxyacetic acid]
[1]
  hybridization of SEQ ID No. 12 probe with mRNA from BMS maize cultured on medium containing the auxin: hybridized

## NC(=O)NS(=O)(=O)c1ccccc1Cl [CBSU]
[2]
  hybridization of SEQ ID No. 12 probe with mRNA from anther or entire aerial portion of treated plants: did not hybridize

## CC1=C(C(=O)Nc2ccccc2)SCCO1 [Carboxin]
[2]
  hybridization of SEQ ID No. 12 probe with mRNA from anther or entire aerial portion of treated plants: did not hybridize

## C=CCN(CC=C)C(=O)C(Cl)Cl [Dichlormid]
[2]
  hybridization of SEQ ID No. 12 probe with mRNA from anther or entire aerial portion of treated plants: did not hybridize

## CN(C)C(=O)Nc1ccc(Cl)c(Cl)c1 [Diuron]
[2]
  hybridization of SEQ ID No. 12 probe with mRNA from anther or entire aerial portion of treated plants: did not hybridize

## COCC(=O)N(c1c(C)cccc1C)C(C)C(=O)OC (stereo not shown) [Metalaxyl]
[2]
  hybridization of SEQ ID No. 12 probe with mRNA from anther or entire aerial portion of treated plants: did not hybridize

## O=C(O)c1nc(Cl)ccc1Cl [clopyralid]
[3]; 10 μl clopyralid formulation, foliar application with 1 ml water, homozygous ms45 V2 progeny
  plants showing partial to complete male fertile phenotypes, foliar application: Two of five
[3]; 10 μl clopyralid formulation, soil drench with 200 ml water, homozygous ms45 V2 progeny
  plants showing partial to complete male fertile phenotypes, soil drench application: three of six

## COc1c(Cl)ccc(Cl)c1C(=O)O [dicamba]
[3]; of 81 treated V2 plants
  plants with fertile phenotype: 33 plants
  plants with shedder (partially fertile) phenotype: 36 plants
[3]; of 81 treated V2 plants, daily soil drench 3 μl dicamba formulation, one to three days
  plants that produced anthers with pollen: 69 plants
[3]; pollen from 9 treated plants used to pollinate non-transformed ears, kernels germinated
  viability of pollen from treated plants: viable
[4]; quartet/early-uninucleate stage anthers
  ZmAxig1 expression in anthers of treated plants (Northern blot): induced
[4]; soil drench, quartet/early-uninucleate stage anthers (FIG. 6)
  induction of ZmAxig1 expression in anthers from wild-type male fertile plants: induced expression of ZmAxig1
[4]; soil drench, tapetum-ablated male sterile plants (FIG. 6)
  induction of ZmAxig1 expression in anthers from male sterile p5126:DAM/35S:PAT plants: not in anthers from male sterile plants
[2]; anthers, northern blot (FIG. 3)
  hybridization of SEQ ID No. 12 probe with mRNA from anthers of treated plants: hybridized very strongly
[2]; tassel or whorl leaf, northern blot (FIG. 3)
  hybridization of SEQ ID No. 12 probe with mRNA from tassel or whorl leaf of treated plants: to a lesser degree
[5]
  in situ hybridization of ZmAxig1 antisense RNA probe to RNA in tapetum of anthers and microspores: strong in situ hybridization
[6]
  expression level of induced cDNA fragments relative to the control: greater than 2.5 fold
